# Reference: article PMC8910920 (International Journal of Molecular Sciences, 2022)
# Read-outs that look alike come from different tables or passages of the source.
# What was measured:
# [1] = molecular target: T1, rTRPM8 (Rattus norvegicus, UniProt Q8R455); set-up: method as in PMID 32843690; conditions: reference antagonist value; ref [31]; read-out: rTRPM8 IC50, Ca2+ microfluorography; cited from earlier work
# T1 construct: expressed in transfected cells
# [2] = tested on: serum proteins; assay: Protein binding; assay type: in vitro ADME, human
# [3] = tested on: CACO-2 cell monolayers; assay: Caco-2 permeability; assay type: in vitro ADME; conditions: CACO-2 cell monolayer
# Protocol: These studies were subcontracted to Eurofins-CEREP or Eurofins-PANLABS. Briefly, agonists and antagonist assays were performed in cell cultures overexpressing the corresponding channel (CHO: TRPV1 and TRPA1; HEK293: TRPV3 and ASIC3). In vitro pharmacology, cellular channel functional assays: the compound was prepared in assay buffer to the final concentration, 10 μM. The compound wells, reference agonist and background vehicle controls were prepared in DMSO at 0.3%. The reference agonist for each Ion Channel assayed was prepared in a similar manner to serve as the assay control. The reference agonist for each Ion Channel was included at Emax (the concentration where the reference agonist elicited a maximal response). The agonist assay was conducted on fluorimeter instruments where the test compound, vehicle controls, and reference agonist were added to the assay plate after a fluorescence baseline was established. The agonist assay was used to assess each compound’s ability to activate each Ion Channel assayed. For the antagonist assay, the compound was pre-incubated for five minutes at room temperature, and then challenged with the EC80 concentration of the reference agonist after establishment of a fluorescence baseline. Vehicle controls and EC80 concentration of reference agonist were added to appropriate wells. The antagonist assay was used to assess each compound’s ability to inhibit activation by the corresponding Ion Channel agonist. ASIC3 ionflux antagonist assay: all recordings were obtained from a holding potential of -60 mV. The compound addition sequence was as follows: one addition of pH5.5 buffer was added to establish the baseline response, the test concentration of compound was applied for 30 s, followed by the addition of pH5.5 of compound for 2 s. Binding assays were performed in CHO cell cultures overexpressing human CGRPR, CB2 and M2 receptors. RGM8-51 (10 μM) was tested, and reference compounds used as control agonists and antagonists are detailed in Table 2, footnote. Binding assay results are expressed as a percent of control specific binding. […] Aqueous solubility (μM) was determined by comparing the peak area of the principal peak in a calibration standard (200 μM) containing organic solvent (methanol/water, 60/40, v/v) with the peak area of the corresponding peak in a buffer sample. Partition coefficient: the total amount of compound was determined as the peak area of the principal peak in a calibration standard (100 μM) containing organic solvent (methanol/water, 60/40, v/v). The amount of compound in buffer was determined as the combined, volume-corrected, and weighted areas of the corresponding peaks in the aqueous phases of three organic-aqueous samples of different composition. An automated weighting system was used to ensure the preferred use of raw data from those samples with well quantifiable peak signals. The amount of compound in organic phase was calculated by subtraction. Subsequently, Log D was calculated as the Log10 of the amount of compound in the organic phase divided by the amount of compound in the aqueous phase. […] Permeability was measured in CACO-2 monolayers. Percentage of compounds in the receptors wells was measured using HPLC. […] In vitro metabolism was measured in human liver microsomes. […] The apparent intrinsic clearance (CLint, in μL/min/mg) was calculated from the half-life time.
# [4] = molecular target: T1, rTRPM8; assay: Ca2+ microfluorography assay, HEK293 cells expressing rTRPM8, menthol activation; assay type: cell-based; conditions: HEK293-rTRPM8, 100 μM menthol
# Protocol: This represents a similar activity as β–lactam 2 and a somewhat higher potency than the model TRPM8 antagonists AMTB.
# To measure the effect of the compounds against TRPM8 activity we used microfluorometry-based calcium flux assays with Fluo-4 NW Ca^2+ dye and fluorescence as described in [30]. Briefly, human embryonic kidney cell line (HEK293) cells stably transfected with rTRPM8 or hTRPM8 were seeded in 96-well plates at a cell density of 30,000 cells. After 2 days the medium was replaced with 100 μL of the dye, Fluo-4 NW, loading solution supplemented with probenecid 2.5 mM and incubated 1 h at 37 °C. The TRPM8 activity was measured using POLASTAR plate reader (BMG Labtech) setting the excitation wavelength at 485 nm and the emission wavelength at 520 nm. The baseline fluorescence was recorded for 3 cycles before the addition of vehicle compound at different concentrations and the antagonist, 10 μM AMTB. Fluorescence intensity was recorded during 7 more cycles and 100 μM menthol was added. Fluorescence intensity was recorded during 10 more cycles.
# Data analysis: The Z-factor was calculated in each assay using the following equation: […]. In all the experiments, the Z-factor was ≥0.5. The effect of the compounds against TRPM8 activity was determined by normalizing their effect on the maximum fluorescence observed after application of 100 μM menthol. Decrease in menthol signal was expressed as percentage of inhibition (%). All data are expressed as the mean ± standard deviation (SD). Data are expressed as the concentration exerting a half-maximal inhibition of agonist-induced [Ca^2+]i elevation (IC50), which was calculated again using GraphPad Prism® software. All determinations were performed in triplicate (n = 3) in 3 independent experiments (N = 3).
# [5] = tested on: OXA-induced cold hypersensitivity in male mice; set-up: method as in PMID 32843690; conditions: ref [31]; cited from earlier work
# [6] = molecular target: T1, rTRPM8; assay: Whole-cell patch-clamp, HEK293-rTRPM8 cells; assay type: cell-based; conditions: HEK293-rTRPM8, 100 μM menthol, holding voltage −60 mV
# Protocol: To confirm the antagonistic activity, electrophysiology (patch-clamp) studies were performed on HEK293 cells expressing the rTRPM8 channel. […] Then, using a holding voltage of −60 mV, different concentrations of RGM8-51 were used to establish the concentration/response curve for rTRPM8 current blockade.
# Whole-cell patch-clamp recordings from HEK293-rTRPM8 cells were carried out 2 days after seeding on 12 mm Ø glass coverslips treated with poly-L-lysine solution (Sigma Aldrich, Spain); the intracellular pipette solution contained (in mM) 150 NaCl, 5 EGTA, 3 MgCl2 and 10 HEPES, adjusted to pH 7.2 with NaOH, and the extracellular solution contained (in mM) 150 NaCl, 6 CsCl, 1.5 CaCl2, 1 MgCl2, 10 D-glucose and 10 HEPES, adjusted to pH 7.4 with NaOH. The TRPM8 activity was measured by the application of two pulses of 100 μM menthol in a time interval of 2 min and a 30 s perfusion of the different compound concentrations before the second menthol pulse.
# Data were sampled at 10 kHz (EPC10 amplifier with PatchMaster 2.53 software, HEKA Electronics, Lambrecht, Germany) and low-pass filtered at 3 kHz for analysis (PatchMaster 2.53 and GraphPad Prism 6.0, Graphpad Software, San Diego, CA, USA). The series resistance was <10 MΩ and to minimize voltage errors was compensated by 60–80%. […] Cell capacitance was measured and used to estimate the current density (J, pA/pF).
# Data analysis: For the whole-cell patch-clamp experiments, results are expressed as the percentage of remaining activation of the TRPM8 channel. This is calculated by normalizing the ratio (p2/p1) of testing conditions to the ratio (p2/p1) of the control condition. […] All data are expressed as the mean ± standard error of the mean (SEM) (n = 5–8). In the current-clamp experiments, the change in membrane potential is expressed as the difference between the resting membrane potential and the membrane potential after the addition of a stimuli. Data were analyzed as previously described (GraphPad 6.0, one-way ANOVA followed by Bonferroni multiple comparisons test, and ROUT method, Q = 10%).
# T1 sequence (Q8R455 whole entry): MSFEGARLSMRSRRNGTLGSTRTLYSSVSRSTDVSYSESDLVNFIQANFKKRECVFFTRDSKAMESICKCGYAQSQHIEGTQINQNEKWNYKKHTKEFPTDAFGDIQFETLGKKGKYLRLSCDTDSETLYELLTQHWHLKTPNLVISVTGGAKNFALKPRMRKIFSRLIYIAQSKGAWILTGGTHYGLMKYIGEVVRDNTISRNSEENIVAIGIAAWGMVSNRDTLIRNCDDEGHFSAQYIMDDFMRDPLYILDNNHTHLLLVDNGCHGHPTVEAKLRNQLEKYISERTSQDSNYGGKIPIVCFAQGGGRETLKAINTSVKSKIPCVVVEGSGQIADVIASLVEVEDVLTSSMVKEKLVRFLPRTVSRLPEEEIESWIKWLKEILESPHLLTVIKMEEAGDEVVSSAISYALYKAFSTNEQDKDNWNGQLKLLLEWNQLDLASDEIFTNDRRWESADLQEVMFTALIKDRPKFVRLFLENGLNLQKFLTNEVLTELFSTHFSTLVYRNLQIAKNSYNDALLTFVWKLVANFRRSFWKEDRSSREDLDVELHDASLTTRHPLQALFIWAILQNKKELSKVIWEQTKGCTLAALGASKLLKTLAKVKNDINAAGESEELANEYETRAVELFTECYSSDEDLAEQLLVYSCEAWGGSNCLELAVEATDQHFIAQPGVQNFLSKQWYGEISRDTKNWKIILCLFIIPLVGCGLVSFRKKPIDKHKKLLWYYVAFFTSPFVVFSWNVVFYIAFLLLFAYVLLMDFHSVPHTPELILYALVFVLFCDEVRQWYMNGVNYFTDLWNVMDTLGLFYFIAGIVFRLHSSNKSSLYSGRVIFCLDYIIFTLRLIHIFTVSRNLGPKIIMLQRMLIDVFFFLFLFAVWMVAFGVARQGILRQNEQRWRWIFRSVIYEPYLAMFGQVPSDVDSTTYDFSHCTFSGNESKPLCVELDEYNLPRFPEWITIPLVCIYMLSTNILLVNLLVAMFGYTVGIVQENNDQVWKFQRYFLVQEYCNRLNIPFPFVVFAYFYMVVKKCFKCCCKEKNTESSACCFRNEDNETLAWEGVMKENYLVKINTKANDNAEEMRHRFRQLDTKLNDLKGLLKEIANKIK
smiles,measurement,setting,value
Cc1cccc(COc2ccccc2C(=O)N(CCCN)Cc2cccs2)c1 [AMTB],IC50,[1],7.3 ± 1.5 µM
"CC(=O)CC(c1ccccc1)c1c(O)c2ccccc2oc1=O (stereo not shown) [Warfarin, reference compound]",Binding to proteins (%),[2],99%
"CC(C)NCC(O)COc1cccc2ccccc12 (stereo not shown) [Propanolol, reference compound]",Permeability B-A (%),[3],74%
same,Permeability A-B (%),[3]; percentage of compound in the acceptor cell,70%
"C[C@@H]1C(=O)N(C[C@H](Cc2ccccc2)NC(=O)OCc2ccccc2)[C@]1(Cc1ccccc1)C(=O)OCc1ccccc1 [Compound 2, reference compound]",IC50,[4],3.1 ± 1.1 µM
same,relief of oxaliplatin-induced cold hypersensitivity,[5],significant activity
same,IC50,[6],0.9 ± 1 µM
